This note sets out measurements from patent publication US9546138B2, “Pyridone derivatives and uses thereof in the treatment of tuberculosis” (priority 2012, dated 2017).

Common to all, as to experiment: microbe, parasite or virus in culture
Holding throughout (type): cell-based

The subject of experiment [1] is Mycobacterium tuberculosis H37Rv (ATCC #27294).
In a further experiment the test system is BCG WT (WT inhA). The note with it: Mycobacterium tuberculosis variant bovis BCG, read-out: Compound MIC50.
The test system of another experiment is M. smeg WT (WT inhA). The note with it: Mycolicibacterium smegmatis, strain M. smeg WT, read-out: Compound MIC50.

Values after ≈ are worked out from the molar mass of the structure shown. Like-named read-outs stand apart in the source and are kept apart here. Where only a bound is given, the exact number is not on record here.

Consider `CC(C)Cc1cc(O)c(-c2ccc(F)cc2F)c(=O)[nH]1` [PD17, 3-(2,4-difluorophenyl)-4-hydroxy-6-isobutylpyridin-2(1H)-one], for which the MIC50 in experiment [1] (120 h, read-out: MTB MIC50) turned out to be 9.18 µM (≈ 2.56 µg/mL).

Regarding `O=c1[nH]c(CC2CCC(F)(F)CC2)cc(O)c1-c1ccccc1` [PD9, 6-((4,4-difluorocyclohexyl)methyl)-4-hydroxy-3-phenylpyridin-2(1H)-one], in experiment [1] (120 h, read-out: MTB MIC50), the MIC50 amounted to 1.32 µM (≈ 0.422 µg/mL).

For `CC1(C)CCC(Cc2cc(OP(=O)(O)O)c(-c3ccccc3)c(=O)[nH]2)CC1` [PD22, 6-((4,4-dimethylcyclohexyl)methyl)-2-oxo-3-phenyl-1,2-dihydropyridin-4-yl dihydrogen phosphate], the MIC50 in experiment [1] (120 h, read-out: MTB MIC50) was 1.72 µM.

Turning to `CC(C)Cc1cc(O)c(-c2ccccc2)c(=O)n1C` [PD19, 4-hydroxy-6-isobutyl-1-methyl-3-phenylpyridin-2(1H)-one], in experiment [1] (120 h, read-out: MTB MIC50), the MIC50 amounted to 8.14 µM (≈ 2.09 µg/mL).

Regarding `CC(C)(C)Cc1cc(O)c(-c2ccccc2)c(=O)[nH]1` [PD8, 4-hydroxy-6-neopentyl-3-phenylpyridin-2(1H)-one], in experiment [1] (120 h, read-out: MTB MIC50), the MIC50 is 10 µM (≈ 2.58 µg/mL).

Consider `CC(C)Cc1cc(O)c(-c2cccc(Cl)c2)c(=O)[nH]1` [PD14, 3-(3-chlorophenyl)-4-hydroxy-6-isobutylpyridin-2(1H)-one], for which the MIC50 in experiment [1] (120 h, read-out: MTB MIC50) was 2.67 µM (≈ 0.742 µg/mL).

Take `CC1(C)CCC(Cc2cc(O)c(-c3ccccc3)c(=O)[nH]2)CC1` [PD10, 6-((4,4-dimethylcyclohexyl)methyl)-4-hydroxy-3-phenylpyridin-2(1H)-one]: the MIC50 worked out at 0.02 µM (≈ 0.00623 µg/mL) in the experiment on BCG WT (WT inhA) (strain BCG WT, WT inhA); 0.4 µM (≈ 0.125 µg/mL) in the experiment with M. smeg WT (WT inhA); 0.02 µM (≈ 0.00623 µg/mL) in experiment [1] (120 h, read-out: MTB MIC50); 0.05 µM (≈ 0.0156 µg/mL) in experiment [1] (read-out: Compound MIC50).

In the case of `CC(C)CCc1cc(O)c(-c2ccccc2)c(=O)[nH]1` [PD7, 4-hydroxy-6-isopentyl-3-phenylpyridin-2(1H)-one], in experiment [1] (120 h, read-out: MTB MIC50), the MIC50 is 1.51 µM (≈ 0.389 µg/mL).

With `O=c1[nH]c(CC2CC2)cc(O)c1-c1ccccc1` [PD3, 6-(cyclopropylmethyl)-4-hydroxy-3-phenylpyridin-2(1H)-one], in experiment [1] (120 h, read-out: MTB MIC50), the MIC50 came out at 4.53 µM (≈ 1.09 µg/mL).

With `O=c1[nH]c(CC2CCOCC2)cc(O)c1-c1ccccc1` [PD6, 4-hydroxy-3-phenyl-6-((tetrahydro-2H-pyran-4-yl)methyl)pyridin-2(1H)-one], in experiment [1] (120 h, read-out: MTB MIC50), the MIC50 worked out at 10.1 µM (≈ 2.88 µg/mL).

For the compound `O=c1[nH]c(CC2CCCCC2)cc(O)c1-c1ccccc1` [PD2, 6-(cyclohexylmethyl)-4-hydroxy-3-phenylpyridin-2(1H)-one], the MIC50 in experiment [1] (120 h, read-out: MTB MIC50) was found to be 0.22 µM (≈ 0.0623 µg/mL); in experiment [1] (read-out: Compound MIC50), 0.16 µM (≈ 0.0453 µg/mL).

Turning to `CCc1cc(C(N)=S)ccn1` [Ethionamide, reference compound], the MIC50 in the experiment with BCG WT (WT inhA) (BCG) was 17 µM (≈ 2.83 µg/mL); with M. smeg WT (WT inhA) it was above 20 µM; in experiment [1] (read-out: Compound MIC50) it was 1.66 µM (≈ 0.276 µg/mL).

Regarding `CC1(C)CCC(Cc2cc(OCOP(=O)(O)O)c(-c3ccccc3)c(=O)[nH]2)CC1` [PD21, ((6-((4,4-dimethylcyclohexyl)methyl)-2-oxo-3-phenyl-1,2-dihydropyridin-4-yl)oxy)methyl dihydrogen phosphate], in experiment [1] (120 h, read-out: MTB MIC50), the MIC50 is 3.99 µM.

`CC(C)Cc1cc(O)c(-c2ccc(F)cc2)c(=O)[nH]1` [PD15, 3-(4-fluorophenyl)-4-hydroxy-6-isobutylpyridin-2(1H)-one]: the MIC50 in experiment [1] (120 h, read-out: MTB MIC50) was determined as 6.75 µM (≈ 1.76 µg/mL).

Take `CC(C)Cc1cc(O)c(-c2ccccc2)c(=O)[nH]1` [PD12, 4-hydroxy-6-isobutyl-3-phenylpyridin-2(1H)-one]: the MIC50 with BCG WT (WT inhA) (strain BCG WT, WT inhA) turned out to be 0.37 µM (≈ 0.09 µg/mL); with M. smeg WT (WT inhA), 0.67 µM (≈ 0.163 µg/mL); in experiment [1] (120 h, read-out: MTB MIC50) it was 1.9 µM (≈ 0.462 µg/mL); in experiment [1] (read-out: Compound MIC50), 1.54 µM (≈ 0.375 µg/mL).

For the compound `O=c1[nH]c(Cc2ccncc2)cc(O)c1-c1ccccc1` [PD11, 4-hydroxy-3-phenyl-6-(pyridin-4-ylmethyl)pyridin-2(1H)-one], in experiment [1] (120 h, read-out: MTB MIC50), the MIC50 stood at 6.08 µM (≈ 1.69 µg/mL).

Turning to `O=c1[nH]c(Cc2ccccc2)cc(O)c1-c1ccccc1` [PD1, 6-benzyl-4-hydroxy-3-phenylpyridin-2(1H)-one], the MIC50 in experiment [1] (120 h, read-out: MTB MIC50) was determined as 1.4 µM (≈ 0.388 µg/mL).

For the compound `CC(C)Cc1cc(O)c(-c2cccc(F)c2)c(=O)[nH]1` [PD18, 3-(3-fluorophenyl)-4-hydroxy-6-isobutylpyridin-2(1H)-one], in experiment [1] (120 h, read-out: MTB MIC50), the MIC50 amounted to 2.69 µM (≈ 0.703 µg/mL).

For `NNC(=O)c1ccncc1` [Isoniazid, isoniazid, reference compound], the MIC50 was 0.3 µM (≈ 0.0411 µg/mL) in the experiment with BCG WT (WT inhA) (strain BCG WT, WT inhA); above 20 µM with M. smeg WT (WT inhA); 0.25 µM (≈ 0.0343 µg/mL) in experiment [1] (read-out: Compound MIC50).

Regarding `O=c1[nH]c(CC2CCC2)cc(O)c1-c1ccccc1` [PD5, 6-(cyclobutylmethyl)-4-hydroxy-3-phenylpyridin-2(1H)-one], in experiment [1] (120 h, read-out: MTB MIC50), the MIC50 stood at 1.19 µM (≈ 0.304 µg/mL).

For `CC(C)Cc1[nH]c(=O)c(-c2ccccc2)c(O)c1C(N)=O` [PD13, 4-hydroxy-2-isobutyl-6-oxo-5-phenyl-1,6-dihydropyridine-3-carboxamide], the MIC50 in experiment [1] (120 h, read-out: MTB MIC50) was 18.7 µM (≈ 5.35 µg/mL).

Consider `O=c1[nH]c(CC2CCCC2)cc(O)c1-c1ccccc1` [PD4, 6-(cyclopentylmethyl)-4-hydroxy-3-phenylpyridin-2(1H)-one], for which the MIC50 in experiment [1] (120 h, read-out: MTB MIC50) is 0.92 µM (≈ 0.248 µg/mL).
